In patent US11857550B2, “Benzathine analogs” (University of Pittsburgh—Of the Commonwealth System of …, priority 2012, dated 2024):
Like-named read-outs stand apart in the source and are kept apart here.

Tests used:
C57BL6 mice [1] = type: in vivo; settings: mouse, in vivo
C57BL6 mice [2] = experiment: Pseudomonas aeruginosa PA103 pneumonia model; type: in vivo; settings: 100 ug IP, PA103 18 h
C57BL6 mice [3] = experiment: TPA induced ear edema; type: in vivo; settings: topical, 8, 40, 200 ug/ear, 18 h after TPA
Procedure: FIGS. 15A-15C. […] FIG. 15A-15C. C57BL6 mice were deeply anesthetized with ketamine (80-100 mg/kg i.p.) and xylazine (10 mg/kg i.p.). 20 μl of ethanol solution of BC-1215 was applied to ears at 8, 40, 200 ug/ear 30 min after TPA administration (2 μg/ear). Comparisons included equal volumes of ethanol (vehicle control). 18 h after TPA administration, mice were euthanized; the thickness of the ear was measured using a micrometer (FIG. 15B). Ear punch biopsies were also taken immediately, weighed and graphed (FIG. 15C).
FIGS. 23A-23D. […] Different dose of BC-1261 was applied to ears of mice at various doses 30 min after TPA administration (2 μg/ear). A. Gross comparisons were made with equal volumes of ethanol as a vehicle control (CON). 18 h after TPA administration, mice were euthanized and the thickness of the ear was measured using a micrometer (B). Autopsy sample were also taken to measure MPO activity (C) and calculate ear edema (D). The data represent n=6 mice/group, *P<0.05 versus TPA.
Topical application of BC-1215 as an anti-inflammatory agent was tested in a model of 12-O-tetradecanoylphorbol-13-acetate (TPA) induced ear edema (Bralley et. al., J Inflamm (LOnd), 2008. 5:p.1). Briefly, 20 μl of an ethanol solution of BC-1215 was applied to ears of mice at 8, 40, and 200 ug/ear for 30 min after TPA administration (2 μg/ear). Comparisons included equal volumes of ethanol (vehicle control). 18 h after TPA administration, mice were euthanized; the thickness of the ear was measured using a micrometer. Ear punch biopsies were also taken immediately, weighed, and graphed.

human PBMC cells = experiment: LPS-induced IL1β and TNFα cytokine release from PBMC cells (ELISA); type: cell-based; settings: LPS-exposed human PBMC
Procedure: (§1) FIGS. 20A-20J is a table depicting benzathine compounds, and assay results. PBMC cells (0.6 ml at 1.5*10^6/ml) were treated with 2 ug/ml LPS for 16 hrs along with each compound at different concentrations. IL1β and TNFα cytokine release were monitored by ELISA to calculate the IC50. U937 monocyte (0.6 ml at 1.5*10^6/ml) were treated with each compound at different concentrations for 16 h. Cells were then stained with Trypan blue to differentiate dead cells, and calculate the LD50. Therapeutic index (TI)=LD50/IC50. Compounds marked in red are high value targets (low IC50, high LD50) and require further testing in vivo.
(§2) Briefly, compounds were added to human PBMC cells at different concentrations that were exposed to […] and cytokine secretion was monitored by ELISA to determine the IC50. Compounds were also added to U937 monocytes at different concentrations, and cells were stained with trypan blue to determine the LD50. […] Several functional studies were undertaken to assess anti-inflammatory effects focusing on BC-1215.

U937 monocyte = U937 monocyte Trypan blue cell death (LD50); type: cell-based, human; settings: U937 monocytes, 16 h
Procedure: as §1, §2

PBMC cells = experiment: LPS-treated PBMC human cytokine array; type: cell-based; settings: 10 ug/ml compound, 2 ug/ml LPS, 16 hrs
Procedure: FIG. 9. BC-1215 inhibits a broad spectrum of Th1 panel cytokines. PBMC cells (0.6 ml at 1.5*10^6/ml) were treated with 2 ug/ml LPS for 16 his with BC-1215 at 10 ug/ml. Cytokine release was monitored by the human cytokine array (R&D systems).
PBMC cells were treated with 2 ug/ml LPS for 16 hrs along with BC-1215 at 10 ug/ml. Cytokine release was monitored by a human cytokine array (R&D systems). […] These cytokines are tightly linked to the pathogenesis of many pro-inflammatory diseases, some of which have led to the use of blocking cytokine antibodies to reduce disease severity. For example: GM-CSF drives inflammation in rheumatoid arthritis (RA), and currently, GM-CSF blocking antibodies (MOR103) have been tested in Phase 1b/2a trial in patients suffering from RA.

MLE cells = MLE cells protein immunoblotting; type: cell-based, murine; settings: different concentrations, 16 h
Source text: FIGS. 10A-10E. BC-1215 inhibits FBXO3 and decreases TRAF protein levels. FIG. 10A. […] FIG. 10B. In vitro ubiquitination assays. […] FIG. 10C. […] Cells were collected and assayed for immunoblotting. FIG. 10D. […] FIG. 10E.
BC-1215 inhibits FBXO3 and decreases TRAF protein levels. […] Cells were collected and assayed for protein immunoblotting.

c1ccc(-c2ccc(CNCCNCc3ccc(-c4ccccn4)cc3)cc2)nc1 [BC-1215]
cell infiltrates (C57BL6 mice [1]): remarkably decreased
lavage cell counts (C57BL6 mice [1]): remarkably decreased
lavage protein concentration (C57BL6 mice [1]): remarkably decreased
lung compliance (C57BL6 mice [1]): increased compliance
lung edema (C57BL6 mice [1]): remarkably decreased
lung elastance (C57BL6 mice [1]): reduced elastance
survival (C57BL6 mice [1]): significantly increased their survival
cell infiltrates (C57BL6 mice [2]): decreased
lavage cell counts (C57BL6 mice [2]): decreased
lavage pro-inflammatory cytokine levels (C57BL6 mice [2]): significantly decreased
lavage protein concentration (C57BL6 mice [2]): decreased
lung compliance (C57BL6 mice [2]): increased compliance
lung elastance (C57BL6 mice [2]): reduced elastance
lung resistance (C57BL6 mice [2]): decreased lung resistance
ear edema (C57BL6 mice [3]): significantly resolve edema
ear thickness (C57BL6 mice [3]): significantly reduced
ear weight (punch biopsies) (C57BL6 mice [3]): significantly reduced
IC50 (cytokine secretion) (human PBMC cells): high
LD50 (U937 monocyte): low
TH1 panel cytokine release (PBMC cells): significantly suppress the majority of the TH1 panel cytokines
FBXL2 protein levels (MLE cells): increased FBXL2 protein levels in a dose dependent manner
TRAF protein levels (MLE cells): decreasing TRAF protein levels
